This is an account of results in patent publication US6492384B1, “Imidazo (4,5-C) pyridine-4-one derivatives with factor XA inhibiting effect” (Merck Patent GmbH, priority 1998, dated 2002).

By melting point is commonly meant the temperature, or range, at which the solid turns liquid.

The compound `Cc1nc(-c2ccc3ccc(Cn4ccc5nc(C(C)C)n(Cc6ccc7ccc(-c8noc(C)n8)cc7c6)c5c4=O)cc3c2)no1` [BC2, 2-isopropyl-3-[7-(5-methyl[1,2,4]oxadiazol-3-yl)naphth-2-ylmethyl]-5-[7-(5-methyl[1,2,4]oxadiazol-3-yl)naphth-2-ylmethyl]-3,5-dihydroimidazo[4,5-c]pyridin-4-one] gave a melting point of 201 to 202 °C.
As to `Cc1nc(-c2ccc(Cn3ccc4nc(C(C)C)n(Cc5ccc6ccc(-c7noc(C)n7)cc6c5)c4c3=O)cc2)no1` [BC3, 2-isopropyl-3-[7-(5-methyl[1,2,4]oxadiazol-3-yl)naphth-2-ylmethyl]-5-[4-(5-methyl[1,2,4]oxadiazol-3-yl)benzyl]-3,5-dihydroimidazo[4,5-c]pyridin-4-one], the melting point is 172 to 173 °C.
Take `Cc1nc(-c2ccc3ccc(Cn4c(C(C)C)nc5ccn(Cc6ccccc6-c6noc(C)n6)c(=O)c54)cc3c2)no1` [BC4, 2-isopropyl-3-[7-(5-methyl[1,2,4]oxadiazol-3-yl)naphth-2-ylmethyl]-5-[2-(5-methyl[1,2,4]oxadiazol-3-yl)benzyl]-3,5-dihydroimidazo[4,5-c]pyridin-4-one]: the melting point lay within 149 to 150 °C.
For `Cc1nc(-c2ccc3ccc(Cn4c(C(C)C)nc5ccn(Cc6ccccc6)c(=O)c54)cc3c2)no1` [BC5, 2-isopropyl-3-[7-(5-methyl[1,2,4]oxadiazol-3-yl)naphth-2-ylmethyl]-5-benzyl-5H-imidazo[4,5-c]pyridin-4-one] the value was 112 to 113 °C.
